# Measurements taken from US20250213579A1, “COMBINATION THERAPIES” (MIRATI THERAPEUTICS, INC., priority 2018, published 2025).
# Where two headings read alike, the source gives them in different places.
# Test system: H2122 cells
# Details: H2122 tumors, nude/nude mice, Compound 478 100 mg/kg and/or Dasatinib 50 mg/kg p.o. daily
# Experimental: Immunocompromised nude/nude mice were inoculated in the right hind flank with cells or patient derived tumor samples harboring a KRas G12C mutation. When tumor volumes reached between 200-400 mm^3 in size, the mice were divided into four groups of 5-12 mice each. The first group was administered vehicle only. […] The fourth group was administered the single agent dose of the KRas G12C inhibitor in combination with the single agent dose of the Src-family kinase inhibitor. […] Tumor volumes were measured using a caliper every two-three days and tumor volumes were calculated by the formula: 0.5×(Length×Width)^2.
# Tumor volumes were measured at pre-specified days set forth below.
smiles,measurement,setting,value
"Cc1nc(Nc2ncc(C(=O)Nc3c(C)cccc3Cl)s2)cc(N2CCN(CCO)CC2)n1 [Dasatinib, N-(2-chloro-6-methylphenyl)-2-((6-(4-(2-hydroxyethyl)piperazin-1-yl)-2-methylpyrimidin-4-yl)amino)thiazole-5-carboxamide]",Average Tumor Volumes,Day 11 from inoculation (start of dosing),324 mm^3
same,Average Tumor Volumes,Day 13 from inoculation,492 mm^3
same,Average Tumor Volumes,Day 15 from inoculation,596 mm^3
same,Average Tumor Volumes,Day 18 from inoculation,820 mm^3
same,tumor growth inhibition,Day 20 (Treatment Day 9),23.5%
same,Average Tumor Volumes,Day 20 from inoculation,938 mm^3
same,Average Tumor Volumes,Day 22 from inoculation,1086 mm^3
same,Average Tumor Volumes,Day 25 from inoculation,1216 mm^3
